Measurements as given in patent US6465457B1 (priority 1991, dated 2002).
Like-named read-outs stand apart in the source and are kept apart here.

Legend:
Type in all cases: in vivo
[1] = test system: Plasmopara viticola (Vines); assay: Foliar fungal disease test on plants: Plasmopara viticola (Vines); settings: one or two days before inoculation
[2] = test system: Venturia inaequalis (Apples); assay: Foliar fungal disease test on plants: Venturia inaequalis (Apples); settings: one or two days before inoculation
[3] = test system: Puccinia recondita (Wheat); assay: Foliar fungal disease test on plants: Puccinia recondita (Wheat)
[4] = test system: Erysiphe graminis tritici (Wheat); assay: Foliar fungal disease test on plants: Erysiphe graminis tritici (Wheat); settings: plants inoculated 24 hours before treatment
[5] = test system: Pyricularia oryzae (Rice); settings: one or two days before inoculation
[6] = test system: Thanatephorus cucumeries (Rice); assay: Foliar fungal disease test on plants: Thanatephorus cucumeries (Rice); settings: one or two days before inoculation
[7] = test system: Phytophthora infestans (Tomatoes); settings: one or two days before inoculation
Septoria nodorum (Wheat) = assay: Foliar fungal disease test on plants: Septoria nodorum (Wheat); settings: one or two days before inoculation
[8] = 10 ppm foliar spray only, plants inoculated with Puccinia recondita 48 hours before treatment
[9] = 100 ppm a.i. foliar spray or root drench (approx. 40 ppm in dry soil)
[10] = 100 ppm a.i. foliar spray or root drench (approx. 40 ppm in dry soil), one or two days before inoculation
[11] = 100 ppm a.i. foliar spray or root drench, plants inoculated with Puccinia recondita 48 hours before treatment

SMILES | POCO (Percentage of Control) disease level, Plasmopara viticola (Vines) ([1]; 10 ppm foliar spray only) | POCO (Percentage of Control) disease level, Venturia inaequalis (Apples) ([2]; 10 ppm foliar spray only) | POCO (Percentage of Control) disease level, Puccinia recondita (Wheat) [3, 8] | POCO (Percentage of Control) disease level, Erysiphe graminis tritici (Wheat) ([4]; 10 ppm foliar spray only) | POCO (Percentage of Control) disease level, Pyricularia oryzae (Rice) ([5]; 10 ppm foliar spray only) | POCO (Percentage of Control) disease level, Thanatephorus cucumeries (Rice) ([6]; 10 ppm foliar spray only) | POCO (Percentage of Control) disease level, Phytophthora infestans (Tomatoes) ([7]; 10 ppm foliar spray only) | POCO (Percentage of Control) disease level, Septoria nodorum (Wheat) (Septoria nodorum (Wheat); 10 ppm foliar spray only) | POCO (Percentage of Control) disease level, Plasmopara viticola (Vines) [1, 9] | POCO (Percentage of Control) disease level, Venturia inaequalis (Apples) [2, 9] | POCO (Percentage of Control) disease level, Puccinia recondita (Wheat) [3, 10] | POCO (Percentage of Control) disease level, Erysiphe graminis tritici (Wheat) [4, 9] | POCO (Percentage of Control) disease level, Pyricularia oryzae (Rice) [5, 9] | POCO (Percentage of Control) disease level, Thanatephorus cucumeries (Rice) [6, 9] | POCO (Percentage of Control) disease level, Phytophthora infestans (Tomatoes) [7, 9] | POCO (Percentage of Control) disease level, Septoria nodorum (Wheat) (Septoria nodorum (Wheat); [9]) | POCO (Percentage of Control) disease level, Puccinia recondita (Wheat) [3, 11]
COC=C(C(=O)OC)c1ccccc1COC(=S)Nc1cccc(OC)c1 [7 (6)] | 60 (60 = 30.1-60% disease present) | 60 (60 = 30.1-60% disease present) | 0+ (0 = 0% disease present) | 0 (0 = 0% disease present) | 10 (10 = 5.1-10% disease present) | 30 (30 = 20.1-30% disease present) | 90 (90 and 94 = 60.1-100% disease present) | 90 (90 and 94 = 60.1-100% disease present) | – | – | – | – | – | – | – | – | –
CO/C=C(/C(=O)OC)c1ccccc1COC(=O)Nc1ccccc1 [5 (1), (E)-methyl 3-methoxy-2-[2-((phenyl)carbamoyloxymethyl)phenyl]propenoate] | – | – | – | – | – | – | – | – | 5 (5 = 3.1-5% disease present) | 30 (30 = 20.1-30% disease present) | 60 (60 = 30.1-60% disease present) | 60 (60 = 30.1-60% disease present) | 10 (10 = 5.1-10% disease present) | 60 (60 = 30.1-60% disease present) | 60 (60 = 30.1-60% disease present) | 30 (30 = 20.1-30% disease present) | –
COC=C(C(=O)OC)c1ccccc1COC(=O)N(Cc1ccccc1)c1cccc(F)c1 [8 (97)] | – | – | – | – | – | – | – | – | 0 (0 = 0% disease present) | 30 (30 = 20.1-30% disease present) | – | 90 (90 and 94 = 60.1-100% disease present) | 30 (30 = 20.1-30% disease present) | 90 (90 and 94 = 60.1-100% disease present) | 90 (90 and 94 = 60.1-100% disease present) | 90 (90 and 94 = 60.1-100% disease present) | 90+ (90 and 94 = 60.1-100% disease present)
COC=C(C(=O)OC)c1ccccc1COC(=O)N(C)c1cccc(SC)c1 [10 (2)] | – | – | – | – | – | – | – | – | 0 (0 = 0% disease present) | 0 (0 = 0% disease present) | – | 0 (0 = 0% disease present) | 0 (0 = 0% disease present) | 20 (20 and 24 = 10.1-20% disease present) | 20 (20 and 24 = 10.1-20% disease present) | 0 (0 = 0% disease present) | 0+ (0 = 0% disease present)
CCN(C(=O)OCc1ccccc1C(=COC)C(=O)OC)c1c(F)cccc1F [23 (3)] | – | – | – | – | – | – | – | – | 0 (0 = 0% disease present) | 0 (0 = 0% disease present) | – | 0 (0 = 0% disease present) | 1 (1 = 0.1-1% disease present) | 0 (0 = 0% disease present) | 5 (5 = 3.1-5% disease present) | 5 (5 = 3.1-5% disease present) | 0+ (0 = 0% disease present)
COC=C(C(=O)OC)c1ccccc1COC(=O)N(CC(F)F)c1cccc([N+](=O)[O-])c1 [6 (5)] | 90 (90 and 94 = 60.1-100% disease present) | 0 (0 = 0% disease present) | 90+ (90 and 94 = 60.1-100% disease present) | 20 (20 and 24 = 10.1-20% disease present) | 60 (60 = 30.1-60% disease present) | 90 (90 and 94 = 60.1-100% disease present) | 90 (90 and 94 = 60.1-100% disease present) | 90 (90 and 94 = 60.1-100% disease present) | – | – | – | – | – | – | – | – | –
COC=C(C(=O)OC)c1ccccc1COC(=O)Nc1cccc(F)c1 [8 (1)] | 90 (90 and 94 = 60.1-100% disease present) | 0 (0 = 0% disease present) | 0+ (0 = 0% disease present) | 60 (60 = 30.1-60% disease present) | 10 (10 = 5.1-10% disease present) | 90 (90 and 94 = 60.1-100% disease present) | 90 (90 and 94 = 60.1-100% disease present) | 90 (90 and 94 = 60.1-100% disease present) | – | – | – | – | – | – | – | – | –
COC=C(C(=O)OC)c1ccccc1COC(=O)Nc1ccccc1OC [16 (1)] | – | – | – | – | – | – | – | – | 0 (0 = 0% disease present) | 60 (60 = 30.1-60% disease present) | – | 90 (90 and 94 = 60.1-100% disease present) | 20 (20 and 24 = 10.1-20% disease present) | 90 (90 and 94 = 60.1-100% disease present) | 90 (90 and 94 = 60.1-100% disease present) | 90 (90 and 94 = 60.1-100% disease present) | 90+ (90 and 94 = 60.1-100% disease present)
COC=C(C(=O)OC)c1ccccc1COC(=O)N(C(C)=O)c1ccccc1Cl [12 (99)] | – | – | – | – | – | – | – | – | 0 (0 = 0% disease present) | 5 (5 = 3.1-5% disease present) | – | 30 (30 = 20.1-30% disease present) | 10 (10 = 5.1-10% disease present) | 90 (90 and 94 = 60.1-100% disease present) | 90 (90 and 94 = 60.1-100% disease present) | 10 (10 = 5.1-10% disease present) | 30+ (30 = 20.1-30% disease present)
COC=C(C(=O)OC)c1ccccc1COC(=O)N(C)c1ccccc1Cl [12 (2)] | – | – | – | – | – | – | – | – | 0 (0 = 0% disease present) | 0 (0 = 0% disease present) | – | 0 (0 = 0% disease present) | 10 (10 = 5.1-10% disease present) | 0 (0 = 0% disease present) | 5 (5 = 3.1-5% disease present) | 3 (3 = 1.1-3% disease present) | 30+ (30 = 20.1-30% disease present)
COC=C(C(=O)OC)c1ccccc1COC(=O)Nc1cccc([N+](=O)[O-])c1 [6 (1)] | – | – | – | – | – | – | – | – | 90 (90 and 94 = 60.1-100% disease present) | 60 (60 = 30.1-60% disease present) | 90 (90 and 94 = 60.1-100% disease present) | 90 (90 and 94 = 60.1-100% disease present) | 90 (90 and 94 = 60.1-100% disease present) | 90 (90 and 94 = 60.1-100% disease present) | 60 (60 = 30.1-60% disease present) | 30 (30 = 20.1-30% disease present) | –
